Measured values from US20240150370A1, “BICYCLIC PYRIDINE DERIVATIVE” (Sumitomo Pharma Co., Ltd., priority 0001, published 2024).
Counter-ions that a name gives are not always drawn.

Biological target: human TAAR1 receptor (Homo sapiens (Human), UniProt Q96RJ0)
Test: Evaluation of agonist activity on human TAAR1 receptor (cAMP assay)
Assay type: cell-based
Conditions: cAMP in human TAAR1-expressing CHO cells, relative to 100 μM tyramine; for activation at 0.1 µM / activation at 1 µM / activation at 10 µM: CHO, 0.5 h, read-out: TAAR1 agonist activity at each concentration (%)
Description: TAAR1 is a G protein-coupled receptor that binds to G proteins (Gas), and activation of the TAAR1 receptor by agonists induces an increase in intracellular cAMP levels. Therefore, the agonist activity of the sample on the human TAAR1 receptor was evaluated using the cAMP assay method.
cAMP Hunter™ CHO-K1 TAAR1 Gs Cell Line, a cell expressing human TAAR1 receptor, was purchased. Human TAAR1-expressing CHO cells were seeded in a 96-well plate, and after culturing for 24 hours, a sample dissolved in DMSO was added and incubated at 37° C. for 30 minutes. A sample for cAMP measurement was prepared according to the cAMPHiRange kit protocol. The amount of cAMP produced by the sample was measured by time-resolved fluorescence using EnVision (excitation wavelength: 330 nm, fluorescence wavelength […]/665 nm).
Sample %=100×{(Csamp)−(Cblank)}/{(Ctyramine)−(Cblank)} • Csamp: count of sample, Ctyramine: count of 100 μM tyramine, Cblank: count of blank

Sequence of human TAAR1 receptor (Q96RJ0 whole entry): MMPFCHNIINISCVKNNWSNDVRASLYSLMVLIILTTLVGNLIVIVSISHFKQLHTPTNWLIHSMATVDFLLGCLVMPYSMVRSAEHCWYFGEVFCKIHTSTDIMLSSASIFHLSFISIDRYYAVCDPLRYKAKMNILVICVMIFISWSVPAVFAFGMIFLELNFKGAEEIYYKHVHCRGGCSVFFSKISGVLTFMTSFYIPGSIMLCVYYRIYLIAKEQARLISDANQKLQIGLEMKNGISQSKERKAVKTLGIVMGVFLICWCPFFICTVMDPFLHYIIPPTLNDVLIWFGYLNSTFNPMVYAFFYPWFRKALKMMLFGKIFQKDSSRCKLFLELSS

SMILES	activation at 0.1 µM (100 nM)	activation at 1 µM (1000 nM)	activation at 10 µM (10000 nM)	TAAR1 agonist activity at each concentration (%) (100 nM)	TAAR1 agonist activity at each concentration (%) (1000 nM)	TAAR1 agonist activity at each concentration (%) (10000 nM)
C[C@H]1COc2cccnc2[C@@H]1CN (racemic) [Example 1, rac-1-[(3R,4S)-3-methyl-3,4-dihydro-2H-pyrano[3,2-b]pyridin-4-yl]methanamine dihydrochloride]	2%	18%	54%	–	–	–
CNC[C@@H]1C[C@@H](C)Oc2cccnc21 (racemic) [Example 7]	17%	56%	75%	–	–	–
C[C@H]1C[C@@H](CN)c2ncccc2S1 (racemic) [Example 13]	4%	31%	63%	–	–	–
CC(C)[C@H]1Oc2cccnc2[C@@H]1CN (racemic) [Example 21]	0%	23%	81%	–	–	–
NC[C@H]1c2ncccc2O[C@@H]1CO (racemic) [Example 26]	0%	25%	73%	–	–	–
COC[C@H]1Oc2cccnc2[C@@H]1CN (racemic) [Example 32]	1%	4%	22%	–	–	–
NC[C@H]1c2ncccc2O[C@H]2CCCC[C@@H]21 (racemic) [Example 33, rac-1-[(5aS,9aR,10S)-6,7,8,9,9a,10-hexahydro-5aH-[1]benzpyrano[3,2-b]pyridine-10-yl]methanamine dihydrochloride]	4%	22%	52%	–	–	–
C[C@H]1Oc2cccnc2[C@H]1CN (racemic) [Example 36, rac-1-[(2R,3R)-2-methyl-2,3-dihydrofuro[3,2-b]pyridin-3-yl]methanamine dihydrochloride]	0%	20%	67%	–	–	–
CC[C@@H]1C[C@H](CN)c2ncccc2O1 (racemic) [Example 60]	7%	40%	82%	–	–	–
CC[C@@H]1C[C@@H](CN)c2ncccc2O1 (racemic) [Example 61]	2%	22%	66%	–	–	–
C[C@@H]1[C@H](CN)c2ncccc2O[C@@H]1C (racemic) [Example 62, rac-1-[(2R,3R,4R)-2,3-dimethyl-3,4-dihydro-2H-pyrano[3,2-b]pyridin-4-yl]methanamine dihydrochloride]	2%	20%	66%	–	–	–
C[C@H]1[C@H](CN)c2ncccc2O[C@@H]1C (racemic) [Example 63]	3%	22%	62%	–	–	–
C[C@H]1[C@H](C)Oc2cccnc2[C@H]1CN (racemic) [Example 64]	0%	7%	40%	–	–	–
C[C@@H]1[C@H](C)Oc2cccnc2[C@H]1CN (racemic) [Example 65]	0%	28%	67%	–	–	–
C[C@H]1Oc2cc(Cl)cnc2[C@@H]1CN (racemic) [Example 85]	–	–	–	6%	37%	70%
CC[C@H]1COc2cccnc2[C@@H]1CN (racemic) [Example 86]	1%	8%	40%	–	–	–
CC[C@@H]1COc2cccnc2[C@@H]1CN (racemic) [Example 87]	4%	25%	63%	–	–	–

SMILES	activation at 0.1 µM (100 nM)	activation at 1 µM (1000 nM)	activation at 10 µM (10000 nM)	TAAR1 agonist activity at each concentration (%) (100 nM)	TAAR1 agonist activity at each concentration (%) (1000 nM)	TAAR1 agonist activity at each concentration (%) (10000 nM)
Cc1ccc(-c2ccnc3c2CCCC3CN)cc1 (racemic) [Example 89, rac-1-[4-(4-methylphenyl)-5,6,7,8-tetrahydroquinolin-8-yl]methanamine dihydrochloride]	0%	23%	48%	–	–	–
NCC1CCc2c(OC3CCC3)ccnc21 (racemic) [Example 91, rac-1-[4-(cyclobutyloxy)-6,7-dihydro-5H-cyclopenta[b]pyridin-7-yl]methanamine dihydrochloride]	0%	14%	49%	–	–	–
Cc1ccnc2c1CCCC2CN (racemic) [Example 92, rac-1-(4-methyl-5,6,7,8-tetrahydroquinolin-8-yl)methanamine]	0%	0%	0%	–	–	–
CC1(C)Oc2ccc(F)nc2C1CN (racemic) [Example 106, rac-1-(5-fluoro-2,2-dimethyl-2,3-dihydrofuro[3,2-b]pyridin-3-yl)methanamine dihydrobromide]	38%	70%	78%	–	–	–
[2H][C@]1(C)Oc2cccnc2[C@H]1CN (relative stereo) [Example 95, rel-1-[(2R,3S)-2-methyl(2-^2H)-2,3-dihydrofuro[3,2-b]pyridin-3-yl]methanamine dihydrochloride]	59%	90%	96%	–	–	–
NC[C@H]1CCSc2cccnc21 (single isomer, unassigned) [Example 39, dihydrochloride]	1%	12%	48%	–	–	–
NC[C@@H]1c2ncccc2OC12CC2 (single isomer, unassigned) [Example 96, rel-1-[(3′R)-3′H-spiro[cyclopropane-1,2′-furo[3,2-b]pyridine]-3′-yl]methanamine dihydrochloride]	3%	28%	66%	–	–	–
NC[C@@H]1c2ncc(Cl)cc2OC12CC2 (single isomer, unassigned) [Example 98, rel-1-[(3′R)-6′-chloro-3′H-spiro[cyclopropane-1,2′-furo[3,2-b]pyridine]-3′-yl]methanamine dihydrochloride]	1%	9%	37%	–	–	–
NC[C@H]1c2ncc(Cl)cc2OC12CC2 (single isomer, unassigned) [Example 99, rel-1-[(3'S)-6′-chloro-3′H-spiro[cyclopropane-1,2′-furo[3,2-b]pyridine]-3′-yl]methanamine dihydrochloride]	9%	39%	62%	–	–	–
Cc1ccc2c(n1)[C@@H](CN)C1(CC1)O2 (single isomer, unassigned) [Example 100, rel-1-[(3′R)-5′-methyl-3′H-spiro[cyclopropane-1,2′-furo[3,2-b]pyridine]-3′-yl]methanamine dihydrochloride]	0%	17%	50%	–	–	–
Cc1ccc2c(n1)[C@H](CN)C1(CC1)O2 (single isomer, unassigned) [Example 101, rel-1-[(3'S)-5′-methyl-3′H-spiro[cyclopropane-1,2′-furo[3,2-b]pyridine]-3′-yl]methanamine dihydrochloride]	62%	79%	84%	–	–	–
NC[C@@H]1c2nc(F)ccc2OC12CC2 (single isomer, unassigned) [Example 102, rel-1-[(3′R)-5′-fluoro-3′H-spiro[cyclopropane-1,2′-furo[3,2-b]pyridine]-3′-yl]methanamine dihydrobromide]	1%	18%	59%	–	–	–
NC[C@H]1c2nc(F)ccc2OC12CC2 (single isomer, unassigned) [Example 103, rel-1-[(3'S)-5′-fluoro-3′H-spiro[cyclopropane-1,2′-furo[3,2-b]pyridine]-3′-yl]methanamine dihydrobromide]	60%	84%	89%	–	–	–
Cc1ccc2c(n1)[C@@H](CN)C(C)(C)O2 (single isomer, unassigned) [Example 104, dihydrochloride]	0%	5%	31%	–	–	–
Cc1ccc2c(n1)[C@H](CN)C(C)(C)O2 (single isomer, unassigned) [Example 105, dihydrochloride]	64%	77%	79%	–	–	–
C[C@H]1COc2cccnc2[C@H]1CN (stereo in doubt) [Example 3, rel-1-[(3R,4R)-3-methyl-3,4-dihydro-2H-pyrano[3,2-b]pyridin-4-yl]methanamine dihydrochloride]	0%	1%	9%	–	–	–
C[C@@H]1COc2cccnc2[C@@H]1CN (stereo in doubt) [Example 4, rel-1-[(3S,4S)-3-methyl-3,4-dihydro-2H-pyrano[3,2-b]pyridin-4-yl]methanamine dihydrochloride]	17%	55%	67%	–	–	–
